Earlier results in patent publication US20070197544A1, “ILOPROST IN COMBINATION THERAPIES FOR THE TREATMENT OF PULMONARY ARTERIAL HYPERTENSION” (CoTherix, Inc., priority 2003, published 2007).
Counter-ions that a name gives are not always drawn. Like-named read-outs stand apart in the source and are kept apart here.

Experiments:
[1] = 20 mg, 12-week period
[2] = at least one year of treatment
[3] = not given; remark: listed apart in the source
[4] = oral, at 3 and 6 months
[5] = administered by aerosolization, patients with pulmonary hypertension
[6] = continuous infusion, severe pulmonary hypertension
[7] = long-term use of aerosolized iloprost, severe pulmonary hypertension
[8] = versus placebo, severe PAH
[9] = open pilot study

SMILES: COc1ccccc1Oc1c(NS(=O)(=O)c2ccc(C(C)(C)C)cc2)nc(-c2ncccn2)nc1OCCO [bosentan]
- liver toxicity (higher dose): liver toxicity occurred
- six minute walk test (whole group, improvement greater at higher doses): improved

SMILES: CN1CC(=O)N2[C@H](c3ccc4c(c3)OCO4)c3[nH]c4ccccc4c3C[C@@H]2C1=O [Cialis, Tadalafil]
- most commonly reported (greater than or equal to 5 percent) treatment-emergent adverse effects [1]: headache, back pain, and upset stomach
- patients who discontinued the study because of adverse events [1]: 5%
- most commonly reported treatment-emergent adverse effects ([2]; 10 mg or 20 mg): headache and upset stomach
- discontinuation rate for any individual adverse event [2]: less than 1%
- patients who discontinued the study due to side effects [2]: Five

SMILES: CCCc1nc(C)c2c(=O)[nH]c(-c3cc(S(=O)(=O)N4CCN(CC)CC4)ccc3OCC)nn12 [Levitra, vardenafil HCl]
- most commonly reported side effects ([3]; in vivo): headache, flushing, and stuffy or runny nose
- erectile function ([3]; phase III clinical studies): Helped men get and keep an erection sufficient for satisfactory sexual performance

SMILES: CC#CCC(C)[C@H](O)/C=C/[C@@H]1[C@H]2c3cccc(CCCC(=O)O)c3O[C@H]2C[C@H]1O (mixture of isomers) [Beraprost]
- benefit in PAH [4]: shown a benefit

SMILES: CCCCC[C@H](O)/C=C/[C@@H]1[C@H]2C/C(=C/CCCC(=O)O)O[C@H]2C[C@H]1O [prostacyclin]
- duration of effects (pulmonary vasodilatation) [5]: 15 min
- mortality [6]: reduce mortality

SMILES: CC#CCC(C)[C@H](O)/C=C/[C@@H]1[C@H]2C/C(=C/CCCC(=O)O)C[C@H]2C[C@H]1O (stereo partly shown) [Iloprost]
- clinical improvement [7]: substantial clinical improvement
- exercise capacity [8]: improved exercise capacity

SMILES: Cc1cc2c(cc1CC(=O)c1sccc1S(=O)(=O)Nc1onc(C)c1Cl)OCO2 [sitaxsentan]
- decrease in pulmonary vascular resistance [9]: 30%
- six minute walk test [9]: improvement
